Data: patent US8952024B2, “Herbicidal pyrimidone derivatives” (E I du Pont de Nemours and Company, priority 2009, dated 2015)

Legend:
Format in all cases: in vivo
[1] = test system: barnyardgrass (Echinochloa crus-galli); test: Test A pre-/postemergence plant response
How it was run: (§1)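 Approximately ten days after concurrent pre- and postemergence spraying in a greenhouse, plants were compared with untreated controls and rated visually for injury, 0 = no effect to 100 = complete control. Preemergence spray was directed onto loam/sand soil; postemergence targeted 1–2 leaf seedlings.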

corn (Zea mays) = test: Test A pre-/postemergence plant response
How it was run: as §1

[2] = test system: giant foxtail (Setaria faberii); test: Test A pre-/postemergence plant response
How it was run: as §1

[3] = test system: large crabgrass (Digitaria sanguinalis); test: Test A pre-/postemergence plant response
How it was run: as §1

[4] = test system: morningglory (Ipomoea spp.); test: Test A pre-/postemergence plant response
How it was run: as §1

[5] = test system: pigweed (Amaranthus retroflexus); test: Test A pre-/postemergence plant response
How it was run: as §1

[6] = test system: velvetleaf (Abutilon theophrasti); test: Test A pre-/postemergence plant response
How it was run: as §1

[7] = test system: wheat (Triticum aestivum); test: Test A pre-/postemergence plant response
How it was run: as §1

[8] = test system: windgrass (Apera spica-venti); test: Test B postemergence plant response; details: Postemergence
How it was run: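 Plants grown in peat/vermiculite medium were sprayed postemergence at 2–18 cm height (1- to 4-leaf stage). After 13–15 days in the greenhouse, response was rated visually against untreated controls on a 0–100 scale (0 no effect, 100 complete control).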

[9] = test system: barnyardgrass (Echinochloa crus-galli); test: Test B flooded paddy test; details: for Plant response rating, Barnyardgrass: Flood (flooded paddy test), 13 to 15 days
How it was run: (§2)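 2-leaf seedlings; pots flooded 3 cm over soil at treatment; cpd dosed into floodwater, depth kept constant. Greenhouse 13–15 d. Visual rating vs untreated controls, 0 = no effect, 100 = complete control.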

[10] = test system: ducksalad (Heteranthera limosa); test: Test B flooded paddy test; details: for Plant response rating, Ducksalad: Flood (flooded paddy test), 13 to 15 days
How it was run: as §2

rice (Oryza sativa) = test: Test B flooded paddy test; details: for Plant response rating, Rice: Flood (flooded paddy test), 13 to 15 days
How it was run: as §2

[11] = test system: umbrella sedge (Cyperus difformis); test: Test B flooded paddy test; details: for Plant response rating, Sedge, Umbrella: Flood (flooded paddy test), 13 to 15 days
How it was run: as §2

[12] = Postemergence, 125 g ai/ha, 0 to 100 scale where 0 is no effect and 100 is complete control
[13] = Postemergence, 500 g ai/ha, visual injury, 0 to 100 scale (0 no effect, 100 complete control), approx. ten days
[14] = Preemergence, 125 g ai/ha, 0 to 100 scale, 0 = no effect, 100 = complete control
[15] = Preemergence, 500 g ai/ha, 0 to 100 scale, 0 = no effect, 100 = complete control
[16] = 250 g ai/ha, flooded paddy test, visual rating on 0 to 100 scale (0 no effect, 100 complete control) after 13 to 15 days
[17] = 62 g ai/ha, scale of 0 to 100 where 0 is no effect and 100 is complete control
[18] = 125 g ai/ha, scale 0 to 100, 0 is no effect, 100 is complete control
[19] = Flood, 31 g ai/ha, scale 0 to 100 (0 no effect, 100 complete control)

Cc1ccc(-n2c(-c3cc(F)cc(F)c3)ncc(C(=O)C3=C(O)CCCC3=O)c2=O)cc1 [Compound 162]
Plant response rating, Barnyardgrass [1, 12]: 100 | Barnyardgrass plant response rating [1, 13]: 100 | Plant response rating, Barnyardgrass [1, 14]: 10 | Plant response rating, Barnyardgrass [1, 15]: 100 | Plant response rating, Corn (corn (Zea mays); [12]): 0 | Corn plant response rating (corn (Zea mays); [13]): 50 | Plant response rating, Corn (corn (Zea mays); [14]): 0 | Plant response rating, Corn (corn (Zea mays); [15]): 0 | Plant response rating, Foxtail, Giant [2, 12]: 70 | Foxtail, Giant plant response rating [2, 13]: 100 | Plant response rating, Foxtail, Giant [2, 14]: 30 | Plant response rating, Foxtail, Giant [2, 15]: 90 | Plant response rating, Crabgrass, Large [3, 12]: 80 | Crabgrass, Large plant response rating [3, 13]: 100 | Plant response rating, Crabgrass, Large [3, 14]: 90 | Plant response rating, Crabgrass, Large [3, 15]: 100 | Plant response rating, Morningglory [4, 12]: 100 | Morningglory plant response rating [4, 13]: 100 | Plant response rating, Morningglory [4, 14]: 0 | Plant response rating, Morningglory [4, 15]: 80 | Plant response rating, Pigweed [5, 12]: 100 | Pigweed plant response rating [5, 13]: 100 | Plant response rating, Pigweed [5, 14]: 100 | Plant response rating, Pigweed [5, 15]: 100 | Plant response rating, Velvetleaf [6, 12]: 100 | Velvetleaf plant response rating [6, 13]: 100 | Plant response rating, Velvetleaf [6, 14]: 60 | Plant response rating, Velvetleaf [6, 15]: 100 | Plant response rating, Wheat [7, 12]: 30 | Wheat plant response rating [7, 13]: 50 | Plant response rating, Wheat [7, 14]: 0 | Plant response rating, Wheat [7, 15]: 50 | Plant response rating, Windgrass ([8]; 31 g ai/ha, 0 to 100 scale (0 no effect, 100 complete control)): 40 | Plant response rating, Windgrass ([8]; 125 g ai/ha, scale 0 to 100 (0 no effect, 100 complete control)): 60 | Plant response rating, Windgrass ([8]; 250 g ai/ha, scale 0 to 100 (0 no effect, 100 complete control), 13 to 15 days): 80 | Plant response rating, Flood, Barnyardgrass [9, 16]: 55 | Plant response rating, Barnyardgrass [9, 17]: 25 | Plant response rating, Barnyardgrass [9, 18]: 40 | Barnyardgrass plant response rating [9, 19]: 20 | Plant response rating, Flood, Ducksalad [10, 16]: 100 | Plant response rating, Ducksalad [10, 17]: 100 | Plant response rating, Ducksalad [10, 18]: 100 | Ducksalad plant response rating [10, 19]: 98 | Plant response rating, Flood, Rice (rice (Oryza sativa); [16]): 90 | Plant response rating, Rice (rice (Oryza sativa); [17]): 25 | Plant response rating, Rice (rice (Oryza sativa); [18]): 90 | Rice plant response rating (rice (Oryza sativa); [19]): 0 | Plant response rating, Flood, Sedge, Umbrella [11, 16]: 100 | Plant response rating, Sedge, Umbrella [11, 17]: 100 | Plant response rating, Sedge, Umbrella [11, 18]: 100 | Sedge, Umbrella plant response rating [11, 19]: 95
